pEC50: −log10 of the molar value.
What was measured:
HIVIIIB = assay: Antiviral Activity: anti-HIV activity in MT4 cells infected with HIVIIIB (MTT); format: cell-based; details: MOI 0.003, 5 days, n=four duplicate determinations
In short: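 MT4 cells infected 1 h with HIVIIIB at 0.003 MOI, washed, seeded at 1×10^4 cells/well with half-log compound dilutions in RPMI 1640 plus 10% FBS and added human serum (final 60%, 35% or 22.5% total serum), 5 days at 37 °C. Viability read by MTT at 570/650 nm; EC50 by median effect equation, CTC50 on uninfected MT4 cells.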

uninfected MT4 cells = assay: Cytotoxicity in uninfected MT4 cells (MTT); format: cell-based; details: 5 days, n=four duplicate determinations, read-out: CTC50 (50% cytotoxicity concentration)
In short: (§1)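 Uninfected MT4 cells, 1×10^4 per well, incubated 5 days at 37 °C with half-log compound dilutions. Viability read by MTT-type OD at 570/650 nm after SDS/HCl lysis overnight. CTC50 taken as 50% cytotoxicity concentration.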

HIV-1 protease = HIV-1 protease (Human immunodeficiency virus type 1 group M subtype B, UniProt P04585); assay: Fluorogenic Assay for Screening Inhibitors of HIV Protease
[1] = Effect of ritonavir on pharmacokinetics of the co-administered compound of this invention; format: in vivo; details: ritonavir in combination with a compound of this invention
[2] = Cytotoxicity in uninfected MT4 cells (MTT); format: cell-based; details: human, 5 days, n=four duplicate determinations, read-out: CTC50 (50% cytotoxicity concentration)
In short: as §1

[3] = Human immunodeficiency virus 1, 120 h

Compound	pEC50 (HIVIIIB; [3])	inhibition at 0.0005 µM (HIV-1 protease; pH 4.5)	CC50 at 120 h [2]	other results
Cc1ccc(OCC(=O)N[C@@H](Cc2ccccc2)C[C@H](O)[C@H](Cc2ccccc2)NC(=O)O[C@H]2CO[C@H]3OCC[C@H]32)c(C)n1 [Example 10, (2S,3S,5S)-5-(2,6-Dimethyl-pyridin-3-yl-oxyacetyl)amino-2-((3R,3aS,6aR)-bis-tetrahydrofuran-3-yl-oxycarbonyl)amino-1,6-diphenyl-3-hydroxyhexane]	–	–	–	pEC50 (HIVIIIB): 6.74; CC50 (uninfected MT4 cells): > 100000 nM; % Inhibition (HIV-1 protease; 0.5 nM inhibitor, pH 4.5, 30° C.): 49%
CC(C)c1nc(CN(C)C(=O)N[C@H](C(=O)N[C@@H](Cc2ccccc2)C[C@H](O)[C@H](Cc2ccccc2)NC(=O)OCc2cncs2)C(C)C)cs1 [ritonavir]	–	–	–	blood levels of the co-administered compound of this invention [1]: increases blood levels; half-life of the co-administered compound of this invention [1]: increases half-life; time to peak plasma concentration of the co-administered compound of this invention [1]: increases the time to peak plasma concentration
O=C(N[C@@H](Cc1ccccc1)C[C@H](O)[C@H](Cc1ccccc1)NC(=O)O[C@H]1CO[C@H]2OCC[C@H]21)O[C@H]1CO[C@H]2OCC[C@H]21 [Example 20, (2S,3S,5S)-2,5-Di-((3R,3aS,6aR)-bis-Tetrahydrofuran-3-yl-oxycarbonyl)amino-1,6-diphenyl-3-hydroxyhexane]	7.47	64%	> 100000 nM	–
Cc1cc2[nH]c(=O)[nH]c2c(C)c1OCC(=O)N[C@@H](Cc1ccccc1)C[C@H](O)[C@H](Cc1ccccc1)NC(=O)O[C@H]1CO[C@H]2OCC[C@H]21 [Example 25, (2S,3S,5S)-5-(4,6-Dimethyl-benzimidazolinon-5-yloxy-acetyl)amino-2-((3R,3aS,6aR)-bis-tetrahydrofuran-3-yl-oxycarbonyl)amino-1,6-diphenyl-3-hydroxyhexane]	6.01	85%	> 100000 nM	–
Cc1cccc(C)c1OCC(=O)N[C@@H](Cc1ccccc1)[C@@H](O)C[C@H](Cc1ccccc1)NC(=O)OC1CCSC1 (mixture of isomers) [Example 30, (2S,3S,5S)-2-(2,6-Dimethylphenoxyacetyl)amino-5-(3(R,S)-tetrahydrothienyloxycarbonyl)amino-1,6-diphenyl-3-hydroxyhexane]	6.00	52%	13500 nM	–
Cc1cc(N)cc(C)c1OCC(=O)N[C@@H](Cc1ccccc1)C[C@H](O)[C@H](Cc1ccccc1)NC(=O)O[C@H]1CO[C@H]2OCC[C@H]21 [Example 1, (2S,3S,5S)-5-(2,6-Dimethyl-4-amino-phenoxyacetyl)amino-2-((3R,3aS,6aR)-bis-tetrahydrofuran-3-yl-oxycarbonyl)amino-1,6-diphenyl-3-hydroxyhexane]	8.05	78%	95000 nM	–
O=C(N[C@@H](Cc1ccccc1)C[C@H](O)[C@H](Cc1ccccc1)NC(=O)O[C@@H]1CO[C@@H]2OCC[C@@H]21)O[C@H]1CO[C@H]2OCC[C@H]21 [Example 23, (2S,3S,5S)-2-((3S,3aR,6aS)-bis-tetrahydrofuran-3-yl-oxycarbonyl)amino-5-((3R,3aS,6aR)-bis-tetrahydrofuran-3-yl-oxycarbonyl)amino-1,6-diphenyl-3-hydroxyhexane]	6.05	39%	> 100000 nM	–
CC(C)c1nc(CN(C)C(=O)N[C@H](C(=O)N[C@@H](Cc2ccccc2)C[C@H](O)[C@H](Cc2ccccc2)NC(=O)OC2COC3OCCC23)C(C)C)cs1 (stereo partly drawn) [Example 34, (2S,3S,5S)-5-(N-(N-((N-Methyl-N-((2-isopropyl-4-thiazolyl)methyl)amino)carbonyl)-L-valinyl)amino)-2-((3R,3aS,6aR), (3S,3aR,6aS)-bis-tetrahydrofuran-3-yl-oxycarbonyl)amino-1,6-diphenyl-3-hydroxyhexane]	8.05	52%	56300 nM	–
O=C(N[C@@H](Cc1ccccc1)[C@@H](O)C[C@H](Cc1ccccc1)NC(=O)O[C@@H]1CO[C@@H]2OCC[C@@H]21)O[C@H]1CO[C@H]2OCC[C@H]21 [Example 22, (2S,3S,5S)-2-((3R,3aS,6aR)-bis-Tetrahydrofuran-3-yl-oxycarbonyl)amino-5-((3S,3aR,6aS)-bis-Tetrahydrofuran-3-yl-oxycarbonyl)amino-1,6-diphenyl-3-hydroxyhexane]	6.97	73%	> 100000 nM	–
Cc1cc(N)cc(C)c1OCC(=O)N[C@@H](Cc1ccccc1)[C@@H](O)C[C@H](Cc1ccccc1)NC(=O)O[C@H]1CO[C@H]2OCC[C@H]21 [Example 3, (2S,3S,5S)-2-(2,6-Dimethyl-4-amino-phenoxyacetyl)amino-5-((3R,3aS,6aR)-bis-tetrahydrofuran-3-yl-oxycarbonyl)amino-1,6-diphenyl-3-hydroxyhexane]	8.10	91%	61000 nM	–
O=C(N[C@@H](Cc1ccccc1)C[C@H](O)[C@H](Cc1ccccc1)NC(=O)OC1COC2OCCC12)OC1COC2OCCC12 (stereo partly drawn) [Example 41, (2S,3S,5S)-2,5-((3R,3aS,6aR)-bis-Tetrahydrofuran-3-yl-oxycarbonyl)amino-1,6-diphenyl-3-hydroxyhexane]	7.37	53%	> 100000 nM	–

More lines, main results first:

pEC50 (HIVIIIB; [3])	inhibition at 0.0005 µM (HIV-1 protease; pH 4.5)	Compound	CC50 at 120 h [2]	other results
7.26	66%	CC(C)c1nc(CN(C)C(=O)N[C@@H](C(=O)N[C@@H](Cc2ccccc2)C[C@H](O)[C@H](Cc2ccccc2)NC(=O)OC2COC3OCCC23)C(C)C)cs1 (stereo partly drawn) [Example 39, (2S,3S,5S)-5-(N-(N-((N-Methyl-N-((2-isopropyl-4-thiazolyl)methyl)amino)carbonyl)-D-valinyl)amino)-2-((3R,3aS,6aR), (3S,3aR,6aS)-bis-tetrahydrofuran-3-yl-oxycarbonyl)amino-1,6-diphenyl-3-hydroxyhexane]	56200 nM	–
6.15	–	O=C(N[C@@H](Cc1ccccc1)[C@@H](O)C[C@H](Cc1ccccc1)NC(=O)c1ccc(O)cc1)O[C@@H]1CO[C@@H]2OCC[C@@H]21 [Example 53, (2S,3S,5S)-5-(4-Hydroxy-benzoyl)amino-2-((3S,3aR,6aS)-bis-tetrahydrofuran-3-yl-oxycarbonyl)amino-1,6-diphenyl-3-hydroxyhexane]	> 100000 nM	inhibition at 0.001 µM (HIV-1 protease; pH 4.5): 56%
7.49	68%	CC(C)c1nc(CN(C)C(=O)N[C@H](C(=O)N[C@@H](Cc2ccccc2)C[C@H](O)[C@H](Cc2ccccc2)NC(=O)O[C@H]2CCOC2)C(C)C)cs1 [Example 50, (2S,3S,5S)-5-(N-(N-((N-Methyl-N-((2-isopropyl-4-thiazolyl)methyl)amino)carbonyl)-L-valinyl)amino)-2-(3S-tetrahydrofuran-3-yl-oxycarbonyl)amino-1,6-diphenyl-3-hydroxyhexane]	56200 nM	–
7.38	74%	Cc1nc(CN(C)C(=O)N[C@H](C(=O)N[C@@H](Cc2ccccc2)C[C@H](O)[C@H](Cc2ccccc2)NC(=O)O[C@H]2CO[C@H]3OCC[C@H]32)C(C)C)cs1 [Example 49, (2S,3S,5S)-5-(N-(N-((N-Methyl-N-((2-methyl-4-thiazolyl)methyl)amino)carbonyl)-L-valinyl)amino)-2-((3R,3aS,6aR)-bis-tetrahydrofuran-3-yl-oxycarbonyl)amino-1,6-diphenyl-3-hydroxyhexane]	> 100000 nM	–
6.30	43%	O=C(N[C@@H](Cc1ccccc1)C[C@H](O)[C@H](Cc1ccccc1)NC(=O)OC1COC2OCCC12)OCc1cncs1 (stereo partly drawn) [Example 40, (2S,3S,5S)-5-((5-Thiazolyl)methoxycarbonyl)amino-2-((3R,3aS,6aR), (3S,3aR,6aS)-bis-tetrahydrofuran-3-yl-oxycarbonyl)amino-1,6-diphenyl-3-hydroxyhexane]	> 100000 nM	–
7.92	83%	CC(C)c1nc(CN(C)C(=O)NC(C(=O)NC(Cc2ccccc2)CC(O)C(Cc2ccccc2)NC(=O)OC2COC3OCCC23)C(C)C)cs1 [Example 51, (2S,3S,5S)-5-(N-(N-((N-Methyl-N-((2-isopropyl-4-thiazolyl)methyl)amino)carbonyl)-D-valinyl)amino)-2-((3R,3aS,6aR)-bis-tetrahydrofuran-3-yl-oxycarbonyl)amino-1,6-diphenyl-3-hydroxyhexane]	> 100000 nM	–
7.85	83%	CC(C)c1nc(COC(=O)N[C@H](C(=O)N[C@@H](Cc2ccccc2)C[C@H](O)[C@H](Cc2ccccc2)NC(=O)OC2COC3OCCC23)C(C)C)cs1 (stereo partly drawn) [Example 37]	> 100000 nM	–
6.37	52%	O=C(N[C@@H](Cc1ccccc1)[C@@H](O)C[C@H](Cc1ccccc1)NC(=O)OC1COC2OCCC12)OCc1cncs1 (stereo partly drawn) [Example 35, (2S,3S,5S)-2-((5-Thiazolyl)methoxycarbonyl)amino-5-((3R,3aS,6aR), (3S,3aR,6aS)-bis-tetrahydrofuran-3-yl-oxycarbonyl)amino-1,6-diphenyl-3-hydroxyhexane]	> 100000 nM	–

From patent US5905068A, “Retroviral protease inhibiting compounds” (Abbott Laboratories, priority 1996, dated 1999)
